5 molecules from BindingDB's records for doi:10.1111/cbdd.12812 (Yueyang Vocational Technical College, 2016) can be followed below.

This experiment addresses T1, Aromatase (Homo sapiens, UniProt P11511).
T1 sequence (P11511 whole entry): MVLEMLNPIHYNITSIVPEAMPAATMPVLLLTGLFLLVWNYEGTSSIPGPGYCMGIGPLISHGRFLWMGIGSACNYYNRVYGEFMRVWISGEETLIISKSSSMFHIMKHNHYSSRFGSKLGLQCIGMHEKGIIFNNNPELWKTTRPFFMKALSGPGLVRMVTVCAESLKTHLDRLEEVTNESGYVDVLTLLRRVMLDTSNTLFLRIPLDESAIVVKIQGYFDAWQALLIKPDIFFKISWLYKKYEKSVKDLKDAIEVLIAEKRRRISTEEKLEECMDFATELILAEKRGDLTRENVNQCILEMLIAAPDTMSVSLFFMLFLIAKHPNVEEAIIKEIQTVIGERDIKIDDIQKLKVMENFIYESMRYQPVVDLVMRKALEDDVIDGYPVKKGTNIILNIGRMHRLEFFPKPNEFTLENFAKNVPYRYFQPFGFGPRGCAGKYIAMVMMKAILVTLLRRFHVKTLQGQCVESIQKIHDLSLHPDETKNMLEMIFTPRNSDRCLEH
The experiment can be described thus: Aromatase Inhibition Activity Assay. To be noted: pH 7.5; 37 °C. Here is the method:
Briefly, concentrated stock solutions of test compounds were prepared in acetonitrile. Hundred microliters of samples containing serial dilutions of test compounds (dilution factor of 3 between samples) and cofactor mixture (0.4 U/mL glucose-6-phosphate dehydrogenase; 16.2 μm NADP+; 825 μm MgCl2; 825 μm glucose-6- phosphate; 50 μm citrate buffer, pH 7.5) was prepared in a 96-well plate. […] The plate was covered and incubated for 30 min at 37 °C. Seventy-five microliters of 0.5 m Tris base was then added to stop the reaction, and the fluorescence of the formed de-methylated MFC was measured with a plate reader (Spectra Max Gemini; Molecular Devices, Sunnyvale, CA, USA).
Take `Cc1c(C(=O)c2nn3c(nc(=O)c4ccccc43)s2)c(=O)n(-c2ccccc2)n1C` [2-[4-(1,2-Dihydro-1,5-dimethyl-2-phenyl-3-oxo-3H-pyrazol-4-yl]-1,3,4-thiazolo[3,2-a]-1,3-quinazolin-2-one (10b)]: the 50% inhibitory concentration (IC50) amounted to 3.9 nM. The value for `Cc1c(C(=O)CSC#N)c(=O)n(-c2ccccc2)n1C` [1,2-Dihydro-1,5-dimethyl-2-phenyl-4-thiocyanatoacetyl-3H-pyrazol-3-one (2)] was 6.7 nM.

Regarding `Cc1c(-c2csc(O)n2)c(=O)n(-c2ccccc2)n1C` [2-Hydroxy-4-([4-(1,2-dihydro-1,5-dimethyl-2-phenyl-3-oxo-3H-pyrazol-4-yl)thiazole (25)], it took 3.5 nM to reach half-maximal inhibition (IC50). This IC50 is about 1.9-fold lower than that of the molecule before. For `Cc1c(-c2csc(Cl)n2)c(=O)n(-c2ccccc2)n1C` [2-Chloro-4-[4-(1,2-dihydro-1,5-dimethyl-2-phenyl-3-oxo-3H-pyrazol-4-yl)thiazole (26)] the value was 3.3 nM; for `Cc1c(C(=O)c2sc(=N)sc2Nc2ccccc2)c(=O)n(-c2ccccc2)n1C` [4-[4-(1,2-Dihydro-1,5-dimethyl-2-phenyl-3-oxo-3H-pyrazol-4-ylcarbonyl)]-5-phenylamino-1,3-dithiole-2-imine (7)], 4.6 nM.
